This passage reports IC50 results from US20260042764A1, “COMPOSITIONS AND METHODS FOR INHIBITION OF KRAS” (TheRas, Inc., priority 2022, published 2026).

Experiment [1] concerns HCT116 cells (KRAS G13D). Briefly: Cell-based pERK HTRF assay in HCT116 cells (Biological Example 5). To be noted: Homo sapiens, HCT-116. On the procedure: (§1) Biological Example 5: Cell-based PERK HTRF assay in AsPC-1, SW1900, HPAC, Capan-2, RKN, H358, HCT116, KP-2, H1573, A549, MKN1, and HT1080 cells
(§2) The inhibition of ERK phosphorylation, as measured using the HTRF Advanced Phospho-ERK 1/2 (Thr202/Tyr204) Detection Assay kit (Perkin Elmer), was used to determine the effectiveness of test compounds in disrupting KRAS-driven protein/effector signaling in cells.
(§3) On day 1, cells were seeded into 96-well plates at 2.5×10^4 cells/well in 100 μL of complete growth media supplemented with 10% fetal bovine serum (FBS) and incubated at 37° C., in the presence of 5% CO2.
(§4) On day 2, cells were treated with compounds diluted in DMSO at 0.25% final DMSO concentration. Compounds were dosed in a 9-point concentration curve with three-fold dilution between concentrations. Cells were incubated in the presence of compound for two hours at 37° C. Following this treatment period, cells were harvested by aspirating the media, adding 40 μL of kit-supplied 1x lysis buffer per well, and shaking for 30 minutes at 250 rpm at room temperature.
(§5) Following cell lysis, samples were homogenized by pipetting up and down twenty times and 16 μL of cell lysate per well was transferred from the 96-well cell culture plate to two wells of a 384-well detection plate. A complete detection buffer was prepared by diluting D2 and Eu Cryptate antibodies 1:20 in kit-provided detection solution, 4 μL of complete detection buffer was then added to each well with lysate. Plates were incubated with gentle rocking for 24 hours at 4° C.
(§6) Following this incubation period, plates were centrifuged at 500×g for one minute and analyzed on a CLARIOstar plate reader. Data was imported into Microsoft Excel and the signal from the 665 nm channel was divided by the signal from the 620 nm channel. % pERK was calculated as: […]
(§7) Data was imported to the Prism software package (Graphpad) and EC50 values were calculated using the log (inhibitor) vs, response—variable slopc (Four parameters) model.
(Time-resolved FRET reads energy transfer from a long-lived donor to a nearby acceptor.)

In experiment [2] the test system is H1573 cells (KRAS G12A). Nature of the experiment: Cell-based pERK HTRF assay in H1573 cells (Biological Example 5). To be noted: Homo sapiens, NCI-H1573. How it is done: as §1, §2, §3, §4, §5, §6, §7
In experiment [3] the test system is HT1080 cells (NRAS). Nature of the experiment: Cell-based pERK HTRF assay in HT1080 cells (Biological Example 5). As to conditions: Homo sapiens, HT-1080. On the procedure:
as §1, §2, §3, §4, §5, §6, §7

Experiment [4] has as its system KP-2 cells (KRAS G12R). Nature of the experiment: 3D Cell viability assay in KP-2 cells (Biological Example 6). In kind it is cell-based. To be noted: KP-2 (KRAS G12R) spheroids, 72 hours. How it is done:
(§8) Biological Example 6: 3D Cell viability assay in AsPC-1, SW1900, HPAC, Capan-2, RKN, H358, HCT116, KP-2, H1573, A549, MKN1, and HT1080 cells
(§9) The inhibition of cellular viability as a result of test compound treatment in a spheroid assay was measured using the CellTiter-Glow 3D Cell Viability Assay (Promega).
(§10) On Day 1, 1000 cells per well were seeded in 150 μL of complete growth media supplemented with 10% fetal bovine serum (FBS) and incubated at 37° C., in the presence of 5% CO2 in 96-well ultra-low attachment microplates (Corning) for 48 hours undisturbed to allow spheroids to form.
(§11) Following spheroid formation, cells were treated with compounds diluted in DMSO at 0.25% final DMSO concentration. Compounds were dosed in a 9-point concentration curve with three-fold dilution between concentrations. Cells were incubated in the presence of compound for 72 hours at 37° C., in the presence of 5% CO2.
(§12) Following this incubation period, the kit-provided CTG reagent was allowed to equilibrate for 30 minutes at room temperature, 150 μL of equilibrated CTG reagent was added to each well, and the plate was sealed before shaking at 250 rpm for 10 minutes at room temperature to lyse the cells, 150 μL of lysate per well was transferred to a 96-well plate and luminescence was read on a CLARIOstar plate reader.
(§13) Data was imported into the Prism software package (Graphpad) and EC50 values were calculated using the log (inhibitor) vs, response—variable slope (Four parameters) model.

For experiment [5], the system named is KP-2 cells (KRAS G12R). Briefly: Cell-based pERK HTRF assay in KP-2 cells (Biological Example 5). As to conditions: KP-2 (KRAS G12R) cells. On the procedure: as §1, §2, §3, §4, §5, §6, §7
The subject of experiment [6] is A549 cells (KRAS G12S). Nature of the experiment: 3D Cell viability assay in A549 cells (Biological Example 6). In kind it is cell-based. To be noted: Homo sapiens; A549 (KRAS G12S) spheroids, 72 hours. On the procedure: as §8, §9, §10, §11, §12, §13
Experiment [7] relates to H1573 cells (KRAS G12A). Briefly: 3D Cell viability assay in H1573 cells (Biological Example 6). In kind it is cell-based. To be noted: Homo sapiens, NCI-H1573; H1573 (KRAS G12A) spheroids, 72 hours. On the procedure: as §8, §9, §10, §11, §12, §13

As for `N#Cc1cnn2c1CN(c1nc(OC[C@@]34CCCN3C[C@H](F)C4)nc3c(F)c(-c4ccc(F)c5sc(N)c(C#N)c45)c(C(F)(F)F)cc13)CC2` [Compound 392], the IC50 (as a rule, the concentration that gives 50% inhibition) is ≤ 100 nM in experiment [1]; 100 to 1000 nM in experiment [2]; > 1000 nM in experiment [3]; 100 to 1000 nM in experiment [4]; 100 to 1000 nM in experiment [5]; 100 to 1000 nM in experiment [6]. Besides, the 50% inhibitory concentration (IC50) in experiment [7] fell in the range of 100 to 1000 nM.

As to `C[C@@H]1[C@H](N(C)c2nc(OC[C@@]34CCCN3C[C@H](F)C4)nc3c(F)c(-c4ccc(F)c5sc(N)c(C#N)c45)c(C(F)(F)F)cc23)CC(=O)N1C` [Compound 440], the 50% inhibitory concentration (IC50) in experiment [1] is ≤ 100 nM; in experiment [2], 100 to 1000 nM; in experiment [3] it was > 1000 nM; in experiment [4] it was ≤ 100 nM; in experiment [5], 100 to 1000 nM; in experiment [6], 100 to 1000 nM. Also, the half-inhibitory concentration (IC50) in experiment [7] was > 1000 nM.

`CCC(=O)N1C[C@@H](N(CC)c2nc(OC[C@@]34CCCN3C[C@H](F)C4)nc3c(F)c(-c4ccc(F)c5sc(N)c(C#N)c45)c(C(F)(F)F)cc23)C[C@H]1C` [Compound 442]: the IC50 is ≤ 100 nM in experiment [1]; 100 to 1000 nM in experiment [2]; > 1000 nM in experiment [3]; 100 to 1000 nM in experiment [4]; 100 to 1000 nM in experiment [5]; 100 to 1000 nM in experiment [6]. This molecule yielded a concentration for half-maximal inhibition (IC50) in experiment [7] of 100 to 1000 nM.
